{
  "source": "patent US20190142860A1",
  "about": "“NUCLEIC ACID BASED TIA-1 INHIBITORS” (Aquinnah Pharmaceuticals, Inc., priority 2015, published 2019)",
  "key": {"caspase-3": {"system": "caspase-3", "assay": "Caspase cleavage (Caspase-Glo 3/7) in neurons co-transduced with TIA1 and tau", "assay_type": "cell-based, mouse", "conditions": "salubrinal 25 μM", "method": "Caspase 3/7 cleavage was quantified with the Caspase-Glo 3/7 Assay kit, Promega. Apoptosis detected DNA fragmentation (TiterTACS Colorimetric Apoptosis Detection kit, Trevigen).\nCaspase 3/7 cleavage was quantified with the Caspase-Glo 3/7 Assay kit, Promega. Apoptosis was analyzed by quantifying DNA fragmentation (TiterTACS Colorimetric Apoptosis Detection kit, Trevigen)."}, "[1]": {"system": "stress granules (SGs) in HT22 cells", "assay": "Stress granule / tau granule formation in HT22 cells expressing tau and TIA1", "assay_type": "cell-based, mouse", "method": "HT22 cells were transfected using Lipofectamine (Invitrogen), incubated 24 hours, and treated after 24 hrs (25 uM salubrinal, 5 μg/ml puromycin, 10 μg/ml cycloheximide). At 48 hours the cells were fixed in 4% PFA.\nHT22 cells were maintained in DMEM (4.5 g glucose/L) media supplemented with 10% fetal bovine serum, lx PenStrep (Invitrogen), lx L-Glutamine (Invitrogen), and 1× non-essential amino acids. Cells were passaged twice a week 1:5. Cells were seeded on 18 mm poly-D-lysine coated coverslips in 12-well plates (75,000/coverslip) one day prior to transfection in […] media (DMEM, 10% FBS). Cells were transfected at 1:2 ratio DNA:Lipofectamine (Invitrogen), delivering 2 μg total DNA per well. Lipofectamine in OptiMEM (Invitrogen) is incubated for 5 min prior to the addition of the DNA/OptiMEM. The transfection mixture is then allowed to incubate for 20 min at room temperature prior to being added to the cells. 500 μL of media is removed and 500 μL of transfection mixture is added dropwise to each well. Cells were incubated 24 hours, after which the addition of 25 μM salubrinal may be added to half of the plates and allowed to incubate for 24 hours. At 48 hours post-transfection, the cells were fixed in 4% PFA and stored in PBS.\nGranule count cells: SG density was quantified using Image J software by calculating the number of puncta […] per 63× frame controlled for the number of cells. This was done by thresholding images, and using the analyze particle functionality. Quantifications of granule counts and area in primary neurons was done in ImageJ by using a free-hand tool to outline the neuron, thresholding the image, creating a mask over the nucleus, and using the particle analyzer tool."}},
  "data": [
    {"smiles": "O=C(/C=C/c1ccccc1)NC(NC(=S)Nc1cccc2cccnc12)C(Cl)(Cl)Cl", "note": "(stereo not drawn) [salubrinal]", "values": [
      {"measurement": "levels of cleaved caspase-3 (caspase cleavage)", "setting": "caspase-3", "result": "potentiated"},
      {"measurement": "SG levels", "setting": "[1]; HT22 cells expressing tau, salubrinal 25 uM", "result": "enhanced SG levels"},
      {"measurement": "number of SGs", "setting": "[1]; HT22 cells, P301L, P301L PMIM or P301L PNULL tau ± TIA1-RFP, salubrinal 25 μM", "result": "increased the number of SGs in all conditions"}
    ]}
  ]
}
